The text below walks through data of patent US10435388B2, “Selective inhibitors of clinically important mutants of the EGFR tyrosine kinase” (CS PHARMATECH LIMITED, priority 2016, dated 2019).

Each structure is given as a SMILES string. Several values for one entry are separate records, joined by “and”; a condition that tells them apart may be missing. Identical values can stand only once. Like-named read-outs stand apart in the source and are kept apart here.

The test system of test [1] is NCI-H1975 cells (EGFR L858R/T790 double mutant). Nature of the test: H1975 inhibition assay (cell proliferation), Method A. The class given is cell-based. The following applies: Homo sapiens; cellular proliferation, NCI-H1975 cells, 72 h, CellTiter-Glo (Table 1); read-out: NCI-H1975 IC50 (nM) DM. How it is done:
(§1) Cell Proliferation Assays—Method A
H1975 Inhibition Assay (Cell Proliferation)
(§2) The final concentration was 4,000 cells/well. Add medium only as low control.
(§3) Day-2: Test compounds were dissolved in DMSO at 0.2 mM (200×).
(§4) Day-5: After 72 hours incubation, remove the plates from incubator and equilibrate at room temperature for 15 minutes. Incubate the CellTiter Glo reagents (Promega, G9243) at 37° C. before the experiment. The buffer was equilibrated to room temperature and used to dissolve the substrate. To determine the cell viability, add 30 μL of CellTiter-Glo reagent into each well to be detected. Then shake the plates at room temperature for 10 min and followed by plate read on Envision (PerkinElmer).
(§5) For estimation of IC50, the luminescence readout are transformed to % Inhibition by applying the following equation: The IC50 was then
(§6) [formula] calculated by fitting in XLFit to a four parameters logistic curve.

A further test has as its target T1, Wt EGFR (Homo sapiens, UniProt P00533).
T1 construct: isolated from A431 human epidermoid carcinoma cells which overexpress EGF receptor; endogenous in cells; host or cells: A431 human epidermoid carcinoma cells (receptor purified on wheat germ agglutinin sepharose)
In words: Enzyme assay, IC50 for wt EGFR (Caliper). The class given is biochemical. The following applies: enzyme phosphorylation assay; read-out: EGFR_WT IC50. As for the experimental part:
Purification of Epidermal Growth Factor Receptor Tyrosine Kinase Human EGF receptor tyrosine kinase was isolated from A431 human epidermoid carcinoma cells which overexpress EGF receptor by the following methods. Cells were grown in roller bottles in 50% Delbuco's Modified Eagle and 50% HAM F-12 nutrient media (Gibco) containing 10% fetal calf serum. Approximately 10^9 cells were lysed in two volumes of buffer containing 20 mM 2-(4N-[2-hydroxyethyl]piperazin-1-yl)ethanesulfonic acid (hepes), pH 7.4, 5 mM ethylene glycol bis(2-aminoethyl ether) N,N,N′,N′-tetraacetic acid, 1% Triton X-1OO, 10% glycerol. 0.1 mM sodium orthovanadate, 5 mM sodium fluoride, 4 mM pyrophosphate, 4 mM benzamide, 1 mM dithiothreitol, 80 μg/mL aprotinin, 40 μg/mL leupeptin and 1 mM phenylmethylsulfonyl fluoride. After centrifugation at 25,000×g for 10 minutes, the supernatant was equilibrated for 2 h at […], with 10 mL of wheat germ agglutinin sepharose that was previously equilibrated with 50 mM Hepes, 10% glycerol, 0.1% Triton X-100 and 150 mM NaCl, pH 7.5, (equilibration buffer). Contaminating proteins were washed from the resin with 1M NaCl in equilibration buffer, and the enzyme was eluted with 0.5M N-acetyl-1-D-glucosamine in equilibration buffer, followed by 1 mM urea. The enzyme was eluted with 0.1 mg/ml EGF.
Determination of IC50 Values for Wt EGFR
Dilute all compounds to 500 μM stock solutions in 100% DMSO and make a serial of 4-fold dilution for 10 does. “Max” and “Min” control contain 100% DMSO. “Max” stands for […], “Min” stands for low control without compounds. Transfer 10 μl of compounds to 90 μl of Ix kinase base buffer to make intermediate dilution. Transfer 5 μl of intermediate dilution compounds to the 384-well assay plate, then 10 μl 2.5× enzyme buffer containing (20 nM EGFR, 5 mM DTT, 1× kinase base buffer) were added to assay plate. […] Incubate at RT for 1 hr and 25 μl stop buffer to end up reaction. Collect conversion data from Caliper and conversion data from Caliper program. Fit the data in XLfit to obtain IC50 values.

For the next test, the target named is EGFR_T790M/L858R (Homo sapiens, UniProt P00533, L858R/T790M). Nature of the test: Enzyme assay, IC50 for double-mutant EGFR (EGFR_T790M/L858R) (Caliper). The class given is biochemical. Particulars: enzyme phosphorylation assay; read-out: EGFR_L858R/T790 IC50. How it is done:
(§7) Using the same technique as described in the previous paragraph, various mutated forms of the epidermal growth factor receptor may be isolated from appropriate cell lines which contain them. For example, the EGFR de1746-750 mutant protein may be extracted from PC-9 cells, and the L858R/T790M double mutant EGFR protein may be isolated from H1975 cells.
Determination of IC50 Values for Double-Mutant EGFR (EGFR_T790M/L858R)
Dilute all compounds to 500 μM stock solutions in 100% DMSO and make a serial of 4-fold dilution for 10 does. “Max” and “Min” control contain 100% DMSO. “Max” stands for […], “Min” stands for low control without compounds. Transfer 10 μl of compounds to 90 μl of 1× kinase base buffer to make intermediate dilution. […] Incubate at RT for 1 hr and 25 μl stop buffer to end up reaction. Collect conversion data from Caliper and conversion data from Caliper program. Fit the data in XLfit to obtain IC50 values.

For test [2], the system named is PC9 cells (EGFR d746-750 single mutant). In words: PC-9 growth inhibition assay (cell proliferation), Method A. The class given is cell-based, human. Particulars: Homo sapiens, PC-9; cellular proliferation, PC9 cells, 72 h, CellTiter-Glo (Table 1); read-out: PC9 IC50 (nM) SM. How it is done: as §1, §2, §3, §4, §5, §6
PC-9 Growth Inhibition Assay (Cell Proliferation)
The inhibition assay for PC-9 cells was processed in the same manner as described for the H1975 cells.
In general terms: ATP-based viability assays read luminescence as a measure of living cells.

The subject of test [3] is LoVo cells (unmutated EGFR wild type). In words: LoVo growth inhibition assay (cell proliferation), Method A. It counts as cell-based. Particulars: Homo sapiens, cellular proliferation, 72 h, CellTiter-Glo (Table 1), read-out: LoVo IC50 (nM) WT. How it is done:
as §1
LoVo Growth Inhibition Assay (Cell Proliferation)
The rest of the procedure was carried out in the same manner as described for the H1975 cells.

Another test deals with EGFR_d746-750 (Homo sapiens, UniProt P00533, DEL746-750). In words: Enzyme assay, IC50 for single mutant EGFR_d746-750 (Caliper). The class given is biochemical. The following applies: enzyme phosphorylation assay. As for the experimental part:
as §7
Determination of IC50 Values for Single Mutant EGFR_d746-750
Dilute all compounds to 500 μM stock solutions in 100% DMSO and make a serial of 4-fold dilution for 10 doses. “Max” and “Min” control contain 100% DMSO. “Max” stands for […], “Min” stands for low control without compounds. Transfer 10 μl of compounds to 90 μl of 1× kinase base buffer to make intermediate dilution. […] Incubate at RT for 1 hr and 25 μl stop buffer to end up reaction. Collect conversion data from Caliper and conversion data from Caliper program. Fit the data in XLfit to obtain IC50 values.

The target of another test is T2, INSR (Homo sapiens, UniProt P06213).
T2 construct: purchased CARNA BIOSCIENCE 08-142
In words: INSR inhibition assay (Caliper EZ Reader). Particulars: enzyme assay. The class given is biochemical. As for the experimental part: (§8) Test compound was dissolved in DMSO at 30 mM. […] 20 nL of these compounds DMSO dilutes were dispensed into a new 384-well assay plate by Echo 550. […] 15 uL of kinase assay buffer containing INSR protein and substrate was transferred to assay plate and incubate at RT for 30 minutes. Kinase assay buffer supplemented with substrate peptides was employed as low control to monitor the background. 40 LM ATP was prepared in kinase assay buffer containing and 5 μL of ATP solution was added to each well to start the reaction. The assay plate was incubated at 25° C. for 180 minutes and the reaction was stopped by adding 40 μL of 0.5 M EDTA.
The result is analyzed in the same manner of […].

For a further test, the target named is T3, IGF-1R (Homo sapiens, UniProt P08069).
T3 construct: purchased CARNA BIOSCIENCE 08-141
Nature of the test: IGF-1R inhibition assay (Caliper EZ Reader). It counts as biochemical. The following applies: enzyme assay. How it is done:
as §8, with “IGF-1R” for “INSR”, “μM” for “LM”
Phosphorylated fluorescent-tagged peptides were differentiated from non-phosphorylated peptides by separating using Caliper EZ Reader II and the detection was directly converted to conversion ratio.

The test system of test [4] is p-EGFR in PC9 cells (Exon 19 deletion EGFR). Nature of the test: Exon19 deletion EGFR (activating single mutant) PC-9 cellular autophosphorylation assay. The class given is cell-based, human. Particulars: 2 h treatment, ELISA. As for the experimental part:
Cellular EGFR Autophosphorylation Assays.
The human lung cell line PC9 (Exon 19 deletion EGFR) is obtained from the American type Culture Collection. […] Cells are grown in a humidified incubator at 37° C. with 5% CO2, Assays to measure cellular phosphorylation of endogenous p-EGFR in cell Iysates are carried out according to the protocol described in the R&D Systems DuoSet IC Human Phospho-EGF R ELISA (R&D Systems catalogue number #DYCI095). 40 μL of cells are seeded (10000 cells/well) in growth medium in Corning black, clear-bottomed 384-well plates and incubated at 37° C., with 5%0/CO2 overnight. […] Plates are incubated for a further 2 h, then following aspiration of medium, 40 μL×lysis buffer is added to each well. Greiner black high bind 384 well plates are coated with capture antibody and then blocked with 3% BSA. Following removal of block, 15 μL of lysate are transferred to the Greiner black high bind 384 well plates and incubated for 2 hours. Following aspiration and washing of the plates with PBS, 20 μL of detection antibody are added and incubated for 2 hours. […] The data obtained with each compound are exported into a suitable software package (such as Origin) to perform curve fitting analysis.

Test [5] concerns p-EGFR in H1975 cells (L858R/T790M double mutant EGFR).

Chain of EGFR_T790M/L858R (P00533 25-1210 T790M/L858R): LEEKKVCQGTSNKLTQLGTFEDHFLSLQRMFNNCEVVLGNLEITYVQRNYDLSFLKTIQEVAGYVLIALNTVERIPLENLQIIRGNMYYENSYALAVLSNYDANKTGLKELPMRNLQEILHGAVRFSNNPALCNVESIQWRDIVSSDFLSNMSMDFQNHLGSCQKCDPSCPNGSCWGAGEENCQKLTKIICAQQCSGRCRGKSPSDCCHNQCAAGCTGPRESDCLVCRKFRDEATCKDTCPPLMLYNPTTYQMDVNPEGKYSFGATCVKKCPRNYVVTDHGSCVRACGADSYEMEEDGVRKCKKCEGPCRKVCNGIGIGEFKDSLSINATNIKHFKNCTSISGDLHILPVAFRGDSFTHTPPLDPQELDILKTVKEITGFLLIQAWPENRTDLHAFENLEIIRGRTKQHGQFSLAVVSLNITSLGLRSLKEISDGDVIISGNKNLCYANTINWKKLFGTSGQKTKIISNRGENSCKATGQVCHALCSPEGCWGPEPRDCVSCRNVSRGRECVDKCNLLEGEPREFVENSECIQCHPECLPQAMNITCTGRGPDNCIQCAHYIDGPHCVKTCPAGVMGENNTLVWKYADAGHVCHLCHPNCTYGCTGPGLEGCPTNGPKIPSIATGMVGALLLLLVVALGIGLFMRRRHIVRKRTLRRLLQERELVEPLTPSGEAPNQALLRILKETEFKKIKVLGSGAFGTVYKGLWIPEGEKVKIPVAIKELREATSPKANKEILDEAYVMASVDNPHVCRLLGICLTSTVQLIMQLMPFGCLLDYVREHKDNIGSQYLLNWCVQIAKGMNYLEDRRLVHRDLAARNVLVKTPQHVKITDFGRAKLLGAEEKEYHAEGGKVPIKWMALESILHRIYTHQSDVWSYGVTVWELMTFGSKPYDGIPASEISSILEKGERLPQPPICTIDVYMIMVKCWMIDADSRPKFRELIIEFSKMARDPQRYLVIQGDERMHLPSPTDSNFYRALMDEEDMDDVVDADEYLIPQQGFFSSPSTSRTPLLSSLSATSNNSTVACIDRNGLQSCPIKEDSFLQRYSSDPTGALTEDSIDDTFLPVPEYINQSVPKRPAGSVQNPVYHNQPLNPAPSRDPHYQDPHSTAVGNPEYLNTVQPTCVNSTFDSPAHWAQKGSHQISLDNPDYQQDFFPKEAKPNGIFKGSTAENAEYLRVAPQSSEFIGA
Chain of EGFR_d746-750 (P00533 with tags, fused parts or gaps DEL746-750): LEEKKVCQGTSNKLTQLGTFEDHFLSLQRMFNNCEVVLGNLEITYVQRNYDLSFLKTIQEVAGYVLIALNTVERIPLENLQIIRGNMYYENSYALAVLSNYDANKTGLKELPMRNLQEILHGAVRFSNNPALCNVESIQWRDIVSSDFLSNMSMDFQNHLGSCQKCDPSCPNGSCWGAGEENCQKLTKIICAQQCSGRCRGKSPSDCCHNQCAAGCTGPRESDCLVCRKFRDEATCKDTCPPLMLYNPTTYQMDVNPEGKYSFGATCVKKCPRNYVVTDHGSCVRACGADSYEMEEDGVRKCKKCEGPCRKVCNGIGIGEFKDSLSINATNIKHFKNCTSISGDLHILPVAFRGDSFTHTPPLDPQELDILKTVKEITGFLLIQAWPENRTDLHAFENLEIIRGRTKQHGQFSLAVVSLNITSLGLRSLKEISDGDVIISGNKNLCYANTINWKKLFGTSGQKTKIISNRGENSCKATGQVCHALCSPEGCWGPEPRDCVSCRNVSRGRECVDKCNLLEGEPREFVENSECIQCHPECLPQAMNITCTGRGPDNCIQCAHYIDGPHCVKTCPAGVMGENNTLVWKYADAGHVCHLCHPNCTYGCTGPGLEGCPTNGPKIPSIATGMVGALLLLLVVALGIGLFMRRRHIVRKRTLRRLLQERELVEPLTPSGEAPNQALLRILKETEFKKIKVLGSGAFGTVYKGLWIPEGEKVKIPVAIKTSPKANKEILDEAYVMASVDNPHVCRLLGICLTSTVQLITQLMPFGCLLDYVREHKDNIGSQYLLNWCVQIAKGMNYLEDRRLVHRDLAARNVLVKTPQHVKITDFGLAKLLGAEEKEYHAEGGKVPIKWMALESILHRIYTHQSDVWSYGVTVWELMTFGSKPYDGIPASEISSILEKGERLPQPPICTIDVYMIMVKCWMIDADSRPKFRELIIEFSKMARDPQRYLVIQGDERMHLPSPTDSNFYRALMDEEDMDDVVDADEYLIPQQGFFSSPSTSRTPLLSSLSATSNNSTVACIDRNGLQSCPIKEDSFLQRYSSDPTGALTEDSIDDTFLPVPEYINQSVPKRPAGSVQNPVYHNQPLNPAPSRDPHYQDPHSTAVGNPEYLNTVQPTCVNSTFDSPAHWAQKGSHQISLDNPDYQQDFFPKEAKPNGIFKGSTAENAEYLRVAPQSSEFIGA
T1 sequence (P00533 25-1210): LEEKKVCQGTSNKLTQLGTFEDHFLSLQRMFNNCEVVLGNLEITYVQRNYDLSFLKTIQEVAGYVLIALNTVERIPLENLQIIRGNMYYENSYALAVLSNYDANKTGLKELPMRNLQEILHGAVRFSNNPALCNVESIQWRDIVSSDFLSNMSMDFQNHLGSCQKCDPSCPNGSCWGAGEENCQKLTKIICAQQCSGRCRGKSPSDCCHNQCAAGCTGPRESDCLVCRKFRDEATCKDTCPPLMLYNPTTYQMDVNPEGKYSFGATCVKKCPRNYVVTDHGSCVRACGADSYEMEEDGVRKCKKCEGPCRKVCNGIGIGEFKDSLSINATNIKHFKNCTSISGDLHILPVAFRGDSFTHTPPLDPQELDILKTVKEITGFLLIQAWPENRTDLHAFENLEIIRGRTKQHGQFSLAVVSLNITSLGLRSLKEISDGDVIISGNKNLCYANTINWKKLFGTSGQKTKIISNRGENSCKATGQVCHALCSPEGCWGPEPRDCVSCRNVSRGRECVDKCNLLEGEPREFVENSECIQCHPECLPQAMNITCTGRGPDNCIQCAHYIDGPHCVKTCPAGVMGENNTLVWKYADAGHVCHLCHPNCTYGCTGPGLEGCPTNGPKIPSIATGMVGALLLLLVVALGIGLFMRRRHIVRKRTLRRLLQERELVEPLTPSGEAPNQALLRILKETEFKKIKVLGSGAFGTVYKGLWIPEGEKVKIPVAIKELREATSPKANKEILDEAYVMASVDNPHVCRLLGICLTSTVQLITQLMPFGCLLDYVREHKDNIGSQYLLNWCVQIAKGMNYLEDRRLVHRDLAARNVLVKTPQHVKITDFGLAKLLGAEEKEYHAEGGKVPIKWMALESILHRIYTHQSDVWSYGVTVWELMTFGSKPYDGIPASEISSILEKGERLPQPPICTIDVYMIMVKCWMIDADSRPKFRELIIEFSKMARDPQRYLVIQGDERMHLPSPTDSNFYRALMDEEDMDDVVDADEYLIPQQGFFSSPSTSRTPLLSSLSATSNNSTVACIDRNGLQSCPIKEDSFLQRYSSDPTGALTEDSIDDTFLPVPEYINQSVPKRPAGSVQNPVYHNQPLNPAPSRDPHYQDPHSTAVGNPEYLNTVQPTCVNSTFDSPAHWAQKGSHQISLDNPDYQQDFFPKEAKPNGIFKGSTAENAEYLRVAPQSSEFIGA
T3 sequence (P08069 959-1367 limits assumed): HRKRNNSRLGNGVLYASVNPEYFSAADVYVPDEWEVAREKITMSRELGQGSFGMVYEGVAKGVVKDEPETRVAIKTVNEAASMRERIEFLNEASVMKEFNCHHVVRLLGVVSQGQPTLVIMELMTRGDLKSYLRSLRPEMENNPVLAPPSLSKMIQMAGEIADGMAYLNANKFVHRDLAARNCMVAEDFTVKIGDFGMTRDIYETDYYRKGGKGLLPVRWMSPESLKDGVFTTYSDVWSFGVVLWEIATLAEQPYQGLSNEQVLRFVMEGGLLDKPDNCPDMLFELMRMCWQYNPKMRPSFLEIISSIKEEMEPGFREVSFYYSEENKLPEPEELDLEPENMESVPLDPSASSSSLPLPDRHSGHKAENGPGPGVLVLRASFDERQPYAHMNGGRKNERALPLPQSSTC

For `C=CC(=O)Nc1cc(Nc2nccc(-n3c(=O)[nH]c4ccccc43)n2)c(OC)cc1N(C)CCN(C)C` [Example 10, N-(2-(N-(2-(N,N-Dimethylamino)ethyl)-N-methylamino)-4-methoxy-5-(4-(2-oxo-2,3-dihydrobenzimidazol-1-yl)pyrimidin-2-ylamino)phenyl) propenamide], the IC50 came out at 1.5 nM in test [1]; 1.3 nM at Wt EGFR; 1.2 nM at EGFR_T790M/L858R; 2.2 nM in [2]; 12000 nM in test [3]; 0.91 nM against EGFR_d746-750.

Turning to `C=CC(=O)Nc1cc(Nc2nccc(-n3cc(C)c4ccccc43)n2)c(OC)cc1N(C)CCN(C)C` [Example 2, N-(2-(N-(2-(N,N-Dimethylamino)ethyl)-N-methylamino)-4-methoxy-5-(4-(3-methylindol-1-yl)pyrimidin-2-ylamino)phenyl) propenamide], the IC50 is 7.5 nM in test [1]; 7.1 nM at Wt EGFR; 1.3 nM on EGFR_T790M/L858R; 12.3 nM in test [2]; 5030 nM in test [3]; 3.1 nM at EGFR_d746-750.

Consider `C=CC(=O)Nc1cc(Nc2nccc(-c3cn(C)c4cccc(C)c34)n2)c(OC)cc1N(C)CCN(C)C` [Example 5, N-(2-(N-(2-(N,N-Dimethylamino)ethyl)-N-methylamino)-4-methoxy-5-(4-(1 N,4-dimethylindol-3-yl)pyrimidin-2-ylamino)phenyl)propenamide], for which the IC50 at Wt EGFR was found to be 31 nM; on EGFR_T790M/L858R, 2.7 nM; on EGFR_d746-750, 8.2 nM.

For the compound `C=CC(=O)Nc1cc(Nc2nccc(N3CCc4ccccc43)n2)c(OC)cc1N(C)CCN(C)C` [Example 13, N-(2-(N-(2-(N,N-Dimethylamino)ethyl)-N-methylamino)-4-methoxy-5-(4-(2,3-dihydroindol-1-yl)pyrimidin-2-ylamino)phenyl) propenamide], the IC50 came to 5.6 nM in test [1]; 6.7 nM at Wt EGFR; 1.5 nM at EGFR_T790M/L858R; 9.9 nM in test [2]; 5810 nM in test [3]; 1.7 nM at EGFR_d746-750.

For `C=CC(=O)Nc1cc(Nc2nccc(-c3cn(C)c4ccccc34)n2)c(OC)cc1N(C)CCN(C)C` [AZD-9291], the IC50 in test [1] is […]; against INSR, […]; against IGF-1R, 249 nM and 321 nM; in test [2], 8.4 nM; in test [3], 2860 nM; in [4], 7.31 nM. Moreover, the IC50 in test [4] (Homo sapiens, PC-9, 2 h) was 12.1 nM; in [5] (Homo sapiens, NCI-H1975, 2 h, read-out: H1975 IC50 (nM), cellular EGFR autophosphorylation, 2 h treatment, ELISA) it was 22.7 nM; in [5] (read-out: H1975 IC50, cellular EGFR autophosphorylation, 2 h treatment, ELISA), 11.6 nM.

As for `C=CC(=O)Nc1cc(Nc2nccc(-n3cc(C(N)=O)c4ccccc43)n2)c(OC)cc1N(C)CCN(C)C` [Example 7, N-(2-(N-(2-(N,N-Dimethylamino)ethyl)-N-methylamino)-4-methoxy-5-(4-(3-carboxamidoindol-1-yl)pyrimidin-2-ylamino)phenyl) propenamide], the IC50 in test [1] came to 1.7 nM; on Wt EGFR, 1.1 nM; on EGFR_T790M/L858R, 1.2 nM; in test [2], 1.6 nM; in test [3] it was 2630 nM; against EGFR_d746-750, 0.85 nM.
